Experimental data reported in patent US20150189882A1, “ACTIVE INGREDIENT COMBINATIONS HAVING INSECTICIDAL AND ACARICIDAL PROPERTIES” (priority 2011, published 2015).
Where two headings read alike, the source gives them in different places.

Key:
[1] = tested on: Myzus persicae; test: whole plant or invertebrate; details: in Brassica rapa, foliar; for mortality at 4 g/ha: read-out: Mortality in % after 6^d
[2] = tested on: Phaedon cochleariae larvae; test: whole plant or invertebrate
[3] = tested on: Tetranychus urticae (OP-resistant); test: Tetranychus urticae - test (OP-resistant), French bean leaf discs; assay type: in vivo; details: for mortality at 500 g/ha: 500 g ai/ha; for mortality at 4 g/ha: 4 g ai/ha
Experimental: (§1) To produce a suitable preparation of active compound, 1 part by weight of active compound is mixed with the stated amount of solvent and emulsifier, and the concentrate is diluted with emulsifier-containing water to the desired concentration. To produce a suitable preparation of a biological suspension the cells or spores are diluted with emulsifier-containing water to the desired concentration.
Leaf discs of French beans (Phaseolus vulgaris) infected with all instars of the Two-spotted spider mite (Tetranychus urticae), are sprayed with a preparation of the active ingredient at the desired concentration.
After the specified period of time mortality in % is determined. 100% means that all spider mites have been killed; 0% means that none of the spider mites have been killed.

[4] = tested on: Spodoptera frugiperda; test: Spodoptera frugiperda - spray application; assay type: in vivo; details: for mortality at 20 g/ha: 20 g ai/ha
Experimental: as §1, with “cells, viruses” for “cells”
Cabbage (Brassica oleracea) leaf-discs are sprayed with a preparation of the active ingredient at the desired concentration. Once dry, the leaf discs are infested with larvae of the fall army worm (Spodoptera frugiperda).
After the specified period of time, mortality in % is determined. 100% means that all the caterpillars have been killed; 0% means that none of the caterpillars have been killed. The mortality values thus determined are recalculated using the Colby-formula.

[5] = read-out: Mortality in % after 1^d
[6] = read-out: Mortality in % after 6^d
[7] = Tetranychus urticae, foliar, 0.8 g ai/ha, read-out: Mortality in % after 2^d
[8] = read-out: Mortality in % after 2^d
[9] = Tetranychus urticae, foliar, read-out: Mortality in % after 2^d

Molecule CN/C(=N/CC1CCOC1)N[N+](=O)[O-] (stereo not shown) [Dinotefuran] has a mortality at 20 g/ha [1, 5] of 0% and a mortality at 20 g/ha [2, 6] of 0%.
CCN(Cc1ccc(Cl)nc1)/C(=C/[N+](=O)[O-])NC [Nitenpyram] showed a mortality at 20 g/ha [2, 6] of 0% and a mortality at 0.8 g/ha [3, 7] of 0%.
CC1(C)C(C=C(Cl)Cl)C1C(=O)OC(C#N)c1cccc(Oc2ccccc2)c1 (stereo not shown) [Cypermethrin] showed a mortality at 0.8 g/ha ([4]; Spodoptera frugiperda, 0.8 g ai/ha, read-out: Mortality in % after 6^d) of 67%.
With CC1=NNC(=O)N(/N=C/c2cccnc2)C1 [Pymetrozine] the mortality at 4 g/ha [1] was 0%.
With CC1(C)[C@H](C(=O)O[C@H](C#N)c2cccc(Oc3ccccc3)c2)[C@@H]1/C=C(\Cl)C(F)(F)F [Gamma-Cyhalothrin, gamma-Cyhalothrin] the “Mortality in % after 2^d” value ([4]; 0.16 g ai/ha) was 0%.
With Spinosad the “Mortality in % after 2^d” value ([3]; 0.8 g ai/ha) was 0%.
With O=C(NC(=O)c1c(F)cccc1F)Nc1ccc(Oc2ccc(C(F)(F)F)cc2Cl)cc1F [Flufenoxuron] the mortality at 20 g/ha [2, 6] was 0% and the mortality at 0.8 g/ha [3, 7] was 0%.
With O=S(=O)(CCC(F)=C(F)F)c1ncc(Cl)s1 [Fluensulfone] the “Mortality in % after 2^d” value ([3]; 2000 g ai/ha) was 0%.
CN/C(=N\[N+](=O)[O-])NCc1cnc(Cl)s1 [Clothianidin] gave a mortality at 20 g/ha [1, 5] of 0% and a mortality at 20 g/ha [2, 6] of 83%.
In the case of Cc1ccc(C(C)C)c(O)c1 [Thymol], the mortality at 500 g/ha ([3]; Tetranychus urticae, foliar, read-out: Mortality in % after 6^d) is reported as 0%.
With CCOCn1c(-c2ccc(Cl)cc2)c(C#N)c(Br)c1C(F)(F)F [Chlorfenapyr] the mortality at 0.8 g/ha [3, 7] was 0%.
With N#C/N=C1\SCCN1Cc1ccc(Cl)nc1 [Thiacloprid] the mortality at 20 g/ha [2, 6] was 33% and the mortality at 20 g/ha ([4]; Spodoptera frugiperda, read-out: Mortality in % after 6^d) was 0%.
Work on CN1COCN(Cc2cnc(Cl)s2)/C1=N\[N+](=O)[O-] [Thiamethoxam] yielded a mortality at 20 g/ha [2, 8] of 67%.
With Spinetoram the “Mortality in % after 2^d” value ([3]; 0.8 g ai/ha) was 0%.
For CC1(C)[C@H](C(=O)O[C@H](C#N)c2cccc(Oc3ccccc3)c2)[C@@H]1/C=C\C(=O)OC(C(F)(F)F)C(F)(F)F [Acrinathrin], the mortality at 0.8 g/ha [1, 5] was 80%.
In the case of COC(=O)N(C(=O)N1CO[C@@]2(C(=O)OC)Cc3cc(Cl)ccc3C2=N1)c1ccc(OC(F)(F)F)cc1 [Indoxacarb], the “Mortality in % after 6^d” value ([4]; 0.8 g ai/ha) is reported as 50%.
With CC1(C)C(C=C(Cl)Cl)C1C(=O)OC(C#N)c1cccc(Oc2ccccc2)c1 (stereo not drawn) [Alpha-Cypermethrin, alpha-Cypermethrin] the mortality at 4 g/ha [2, 6] was 0% and the mortality at 0.16 g/ha ([3]; Tetranychus urticae, foliar, 0.16 g ai/ha, read-out: Mortality in % after 2^d) was 0%.
For Abamectin, the “Mortality in % after 2^d” value ([3]; 0.032 g ai/ha) was 0%.
For CC1(C)[C@H](C(=O)O[C@H](C#N)c2cccc(Oc3ccccc3)c2)[C@@H]1C=C(Br)Br [Deltamethrin], the mortality at 0.032 g/ha ([4]; Spodoptera frugiperda, 0.032 g ai/ha, read-out: Mortality in % after 6^d) was 0%.
Molecule CS/C(C)=N\OC(=O)N(C)SN(C)C(=O)O/N=C(\C)SC [Thiodicarb] has a mortality at 100 g/ha [2, 6] of 0% and a mortality at 4 g/ha [3, 9] of 0%.
For CC(=O)N1C(=O)N(NCc2cccnc2)Cc2cc(C(F)(C(F)(F)F)C(F)(F)F)ccc21 [Pyrifluquinazone, Pyrifluquinazon], the “Mortality in % after 2^d” value ([3]; 0.8 g ai/ha) was 0%.
In the case of C/C(=N\C#N)N(C)Cc1ccc(Cl)nc1 [Acetamiprid], the mortality at 20 g/ha [2, 6] is reported as 33%.
O=C(NC(=O)c1c(F)cccc1F)Nc1ccc(Cl)cc1 [Diflubenzuron] gave a mortality at 4 g/ha [3, 9] of 0% and a mortality at 100 g/ha ([4]; Spodoptera frugiperda, 100 g ai/ha, read-out: Mortality in % after 2^d) of 67%.
O=C(NC(=O)c1ccccc1Cl)Nc1ccc(OC(F)(F)F)cc1 [Triflumuron] gave a mortality at 20 g/ha [2, 6] of 0% and a mortality at 20 g/ha ([4]; Spodoptera frugiperda, read-out: Mortality in % after 2^d) of 0%.
N#Cc1nn(-c2c(Cl)cc(C(F)(F)F)cc2Cl)c(N)c1[S+]([O-])C(F)(F)F (stereo not shown) [Fipronil] was tested, and the mortality at 0.16 g/ha [2, 8] was 0% and the mortality at 0.8 g/ha [3, 7] was 0%.
CC(C)N1C(=O)N(c2ccccc2)CS/C1=N\C(C)(C)C [Buprofezin] showed a mortality at 500 g/ha [3, 9] of 0%.
Cc1c(COC(=O)[C@@H]2[C@H](/C=C(\Cl)C(F)(F)F)C2(C)C)cccc1-c1ccccc1 (racemic) [Bifenthrin] showed a mortality at 0.8 g/ha [2, 6] of 50% and a mortality at 0.16 g/ha ([4]; Spodoptera frugiperda, 0.16 g ai/ha, read-out: Mortality in % after 6^d) of 0%.
Cc1c(F)c(F)c(COC(=O)[C@@H]2[C@H](/C=C(\Cl)C(F)(F)F)C2(C)C)c(F)c1F (racemic) [Tefluthrin] showed a mortality at 20 g/ha [2, 6] of 50% and a mortality at 0.8 g/ha [3, 7] of 0%.
Molecule CCc1nn(C)c(C(=O)NCc2ccc(C(C)(C)C)cc2)c1Cl [Tebufenpyrad] has a mortality at 4 g/ha [3, 9] of 0%.
Work on CNC(=O)c1cc(Cl)cc(C)c1NC(=O)c1cc(Br)nn1-c1ncccc1Cl [Chloranthraniliprole, Chlorantraniliprole] yielded a mortality at 4 g/ha [1] of 80% and a mortality at 0.8 g/ha [2, 6] of 33%.
